# Values of other authors as cited in patent US10639343B2, “Preparation method of Gynostemma pentaphyllum leaves extract and Gynostemma pentaphyllum extract prepared by the method thereof” (BTC CORPORATION, priority 2018, dated 2020).
# Settings: intraperitoneal injection, without training
compound,measurement,value
"NC(=O)c1ncn([C@@H]2O[C@H](COP(=O)(O)O)[C@@H](O)[C@H]2O)c1N [AICAR, 5-aminoimidazole-4-carboxamide ribonucleotide]",increase of the distance of exercise performance,44%
